Assay results reported in PubChem BioAssay (NCI).
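In this assay, cells in 96-well plates receive the compound at five concentrations for 48 hours. Endpoints are linearly interpolated between the surrounding concentrations. GI50 marks 50% less growth. The concentration for full growth arrest is given as TGI.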

Key:
Assay in all cases: growth of human tumour cells (NCI), 48 h
[1] = system: NCI-H460 lung
[2] = system: RXF 393 renal
[3] = system: SK-OV-3 ovarian
[4] = system: MDA-MB-435
[5] = system: SF-295 CNS
[6] = system: SNB-75 CNS
[7] = system: T-47D breast
[8] = system: K-562 leukemia
[9] = system: BT-549 breast
[10] = system: IGROV1 ovarian
[11] = system: SR leukemia
[12] = system: TK-10 renal
[13] = system: HOP-92 NSCLC
[14] = system: CCRF-CEM leukemia
[15] = system: M14 melanoma
[16] = system: NCI-H23 lung
[17] = system: MDA-MB-231 breast
[18] = system: SW-620 colon
[19] = system: ACHN renal
[20] = system: NCI-H522 lung
[21] = system: OVCAR-8 ovarian
[22] = system: KM12 colon
[23] = system: SK-MEL-2 melanoma
[24] = system: SN12C renal
[25] = system: UO-31 renal
[26] = system: UACC-257 melanoma
[27] = system: SF-539 CNS
[28] = system: HS 578T breast
[29] = system: OVCAR-4 ovarian
[30] = system: SF-268 CNS
[31] = system: A498 renal
[32] = system: HOP-62 NSCLC
[33] = system: MOLT-4 leukemia
[34] = system: DU-145 prostate
[35] = system: HCT-15 colon
[36] = system: MCF7 breast
[37] = system: PC-3 prostate
[38] = system: HT29 colon
[39] = system: HL-60(TB) leukemia
[40] = system: SK-MEL-5 melanoma
[41] = system: NCI-H226 lung
[42] = system: U251 CNS
[43] = system: A549 NSCLC
[44] = system: NCI/ADR-RES ovarian
[45] = system: SK-MEL-28 melanoma
[46] = system: RPMI-8226 leukemia
[47] = system: EKVX NSCLC
[48] = system: SNB-19 CNS
[49] = system: UACC-62 melanoma
[50] = system: COLO 205 colon
[51] = system: OVCAR-5 ovarian
[52] = system: HCT-116 colon
[53] = system: LOX IMVI melanoma
[54] = system: MALME-3M melanoma
[55] = system: CAKI-1 renal
[56] = system: OVCAR-3 ovarian
[57] = system: 786-0 renal
[58] = system: HCC-2998 colon

For C=C1SC(=Nc2c(C)cc(C)cc2C)N(C(=O)c2sc3ccccc3c2Cl)C12CCCCC2, the GI50 [1] was over 100 µM, the TGI [1] was over 100 µM and the GI50 [2] was over 100 µM. For the same compound, the TGI [2] was over 100 µM, the GI50 [3] was over 100 µM and the TGI [3] was over 100 µM. For the same compound, the GI50 [4] was over 100 µM, the TGI [4] was over 100 µM and the GI50 [5] was 42.3 µM. It also gave a TGI [5] of over 100 µM, a GI50 [6] of over 100 µM and a TGI [6] of over 100 µM. For the same compound, the GI50 [7] was 9.69 µM, the TGI [7] was over 100 µM and the GI50 [8] was 54.5 µM. The TGI [8] was over 100 µM, the GI50 [9] was over 100 µM and the TGI [9] was over 100 µM. The GI50 [10] was over 100 µM, the TGI [10] was over 100 µM and the GI50 [11] was 13 µM. For the same compound, the TGI [11] was over 100 µM, the GI50 [12] was over 100 µM and the TGI [12] was over 100 µM. The GI50 [13] was 39.1 µM, the TGI [13] was over 100 µM and the GI50 [14] was 62.4 µM. It also gave a TGI [14] of over 100 µM, a GI50 [15] of over 100 µM and a TGI [15] of over 100 µM. The GI50 [16] was 37.4 µM, the TGI [16] was over 100 µM and the GI50 [17] was over 100 µM. The TGI [17] was over 100 µM, the GI50 [18] was 31.1 µM and the TGI [18] was over 100 µM. For the same compound, the GI50 [19] was over 100 µM, the TGI [19] was over 100 µM and the GI50 [20] was 28.6 µM. It also gave a TGI [20] of over 100 µM, a GI50 [21] of over 100 µM and a TGI [21] of over 100 µM. The GI50 [22] was 54.6 µM, the TGI [22] was over 100 µM and the GI50 [23] was 61.6 µM. For the same compound, the TGI [23] was over 100 µM, the GI50 [24] was over 100 µM and the TGI [24] was over 100 µM. It also gave a GI50 [25] of 63.8 µM, a TGI [25] of over 100 µM and a GI50 [26] of over 100 µM. For the same compound, the TGI [26] was over 100 µM, the GI50 [27] was over 100 µM and the TGI [27] was over 100 µM. It also gave a GI50 [28] of over 100 µM, a TGI [28] of over 100 µM and a GI50 [29] of over 100 µM. For the same compound, the TGI [29] was over 100 µM, the GI50 [30] was over 100 µM and the TGI [30] was over 100 µM. It also gave a GI50 [31] of over 100 µM, a TGI [31] of over 100 µM and a GI50 [32] of over 100 µM. It also gave a TGI [32] of over 100 µM, a GI50 [33] of 26.3 µM and a TGI [33] of over 100 µM. For the same compound, the GI50 [34] was over 100 µM, the TGI [34] was over 100 µM and the GI50 [35] was over 100 µM. The TGI [35] was over 100 µM, the GI50 [36] was over 100 µM and the TGI [36] was over 100 µM. It also gave a GI50 [37] of 22.3 µM, a TGI [37] of over 100 µM and a GI50 [38] of 58.5 µM. It also gave a TGI [38] of over 100 µM, a GI50 [39] of 16.5 µM and a TGI [39] of over 100 µM. The GI50 [40] was over 100 µM, the TGI [40] was over 100 µM and the GI50 [41] was over 100 µM. It also gave a TGI [41] of over 100 µM, a GI50 [42] of over 100 µM and a TGI [42] of over 100 µM. For the same compound, the GI50 [43] was over 100 µM, the TGI [43] was over 100 µM and the GI50 [44] was over 100 µM. It also gave a TGI [44] of over 100 µM, a GI50 [45] of over 100 µM and a TGI [45] of over 100 µM. For the same compound, the GI50 [46] was 21.6 µM, the TGI [46] was over 100 µM and the GI50 [47] was 38.6 µM. The TGI [47] was over 100 µM, the GI50 [48] was over 100 µM and the TGI [48] was over 100 µM. It also gave a GI50 [49] of 78.5 µM, a TGI [49] of over 100 µM and a GI50 [50] of over 100 µM. For the same compound, the TGI [50] was over 100 µM, the GI50 [51] was over 100 µM and the TGI [51] was over 100 µM. It also gave a GI50 [52] of over 100 µM, a TGI [52] of over 100 µM and a GI50 [53] of over 100 µM. It also gave a TGI [53] of over 100 µM, a GI50 [54] of over 100 µM and a TGI [54] of over 100 µM. For the same compound, the GI50 [55] was 10.7 µM, the TGI [55] was over 100 µM and the GI50 [56] was 88.7 µM. For the same compound, the TGI [56] was over 100 µM, the GI50 [57] was over 100 µM and the TGI [57] was over 100 µM. It also gave a GI50 [58] of 44.7 µM and a TGI [58] of over 100 µM.
